biological target: T1, CCR2 (Homo sapiens, UniProt P41597); assay: Receptor membrane binding assay: [125I]MCP-1 binding to CCR2 on THP-1 cell membranes (SPA beads); conditions: THP-1 membranes, [125I]MCP-1, bound radioactivity after 8 h; read-out: hKi
T1 construct: Membranes were prepared from THP-1 cells; endogenous in cells; host or cells: THP-1 (human acute monocytic leukaemia cells), membrane preparation
Method: The above exemplary substances have been tested for binding to CCR2 using a binding assay as outlined herein below:
THP-1 cells (human acute monocytic leukaemia cells) were cultured under standardized conditions at 37° C. and 5% CO2 in a humidified incubator. THP-1 cells were cultivated in RPMI 1640 medium (Gibco 21875) containing 1% MEM-NEAA (Gibso 11140) 2 mM L-glutamine, 1.5 g/L sodium bicarbonate, 4.5 g/L glucose, 10 mM HEPES and 1.0 mM sodium pyruvate, 90%; 10% fetal calf serum (FCS Gibco 10500-064).
Membranes were prepared from THP-1 cells. THP-1 cells were centrifuged at 300×g at 4° C. for 10 min. The cell pellet was resuspended in Phosphate Buffer Saline (PBS, including 10 μM Pefabloc and a protease inhibitor mix ‘complete’, Boehringer Mannheim (1 tablet/50 ml)), to a concentration of […]. The membrane preparation was performed by disrupting the cells by nitrogen […] (at 50 bar, for 1 h) in a “Nitrogen Bombe” (Parr Instrument). Cell debris was removed by centrifugation (800×g at 4° C., 1 min). The supernatant was centrifuged at 80000×g, 4° C. for 30 min to sediment the cell membranes. Usually 50 mg of protein (Bradford assay) were yielded from 1×10E9 cells. The membranes were resuspended in 25 mM HEPES, 25 mM MgCl2, 1 mM CaCl2, 10% Glycerine for storage in aliquots at −80° C. in 25 mM HEPES, 25 mM MgCl2, 1 mM CaCl2, 10% Glycerine and stored at −80° C.
Receptor Membrane Binding Assay:
Perkin Elmer NEX 332 Jod 125 MCP-1, Stock: 2200 Ci/mmol solved in 2000 μl assay buffer, stored at −20° C. THP-1 membrane were adjusted with 25 mM HEPES, pH 7.2; 5 mM MgCl2; 0.5 mM CaCl2; 0.2% BSA assay buffer to a concentration of 2.5 μg/15 μl. Amersham Biosciences PVT-WGA Beads (RPNQ0001) were adjusted with assay buffer to a concentration of 0.24 mg/30 μl. For preparation of the membrane-bead-suspension membranes and beads were incubated for 30 min at RT under rotation (60 rpm) with a ratio of 1:2. Test compounds dissolved in 100% DMSO to a concentration of 10 mM and are further diluted with 100% DMSO to 1 mM. All additional compound dilutions were obtained with assay buffer, final 1% DMSO. Compounds, membrane-bead-suspension and [125I]MCP-1 (ca. 25000 cpm/10 μl) were incubated. Bound radioactivity was determined by scintillation counter after 8 h. Determination of affinity of test compounds (dissociation constant hKi) is calculated by iterative fitting of experimental data using the “easy sys” program, which is based on law of mass action (Schittkowski K. (1994), Numerische Mathematik, Vol. 68, 129-142).

T1 sequence (P41597 whole entry): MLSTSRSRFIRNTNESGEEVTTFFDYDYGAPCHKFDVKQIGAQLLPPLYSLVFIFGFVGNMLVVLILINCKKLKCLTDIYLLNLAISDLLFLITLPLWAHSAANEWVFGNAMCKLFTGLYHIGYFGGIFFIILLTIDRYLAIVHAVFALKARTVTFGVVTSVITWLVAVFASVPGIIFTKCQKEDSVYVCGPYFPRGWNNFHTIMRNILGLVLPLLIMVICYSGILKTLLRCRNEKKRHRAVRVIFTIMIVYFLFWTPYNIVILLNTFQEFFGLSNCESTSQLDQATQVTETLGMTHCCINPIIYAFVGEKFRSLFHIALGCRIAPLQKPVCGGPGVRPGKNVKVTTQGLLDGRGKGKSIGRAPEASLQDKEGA

| Structure (SMILES) | Ki [nM] |
| --- | --- |
| COC1COCCC1NC1CCN(C(=O)c2ncnc(Nc3cc4ccccc4c(C)n3)c2C)CC1 (centres unmarked) [Example 34] | 1010 |
| CO[C@@H]1COCC[C@@H]1NC1CCN(C(=O)c2ncnc(Nc3ccc4ccccc4c3)c2C)CC1 [Example 35] | 26 |
| COc1ccc2cc(Nc3ncnc(C(=O)N4CCC(N[C@H]5CCOC[C@H]5OC)CC4)c3C)ccc2c1 [Example 36] | 70 |
| COc1ccc2ccc(Nc3ncnc(C(=O)N4CCC(N[C@H]5CCOC[C@H]5OC)CC4)c3C)cc2c1 [Example 37] | 15 |
| COc1cc(Nc2ncnc(C(=O)N3CCC(N[C@H]4CCOC[C@H]4OC)CC3)c2C)cc2ccccc12 [Example 38] | 91 |
| CO[C@H]1COCC[C@H]1NC1CCN(C(=O)c2ncnc(Nc3ccc4ccccc4c3)c2C)CC1 [Example 39] | 84 |
| COc1ccc2ccc(Nc3ncnc(C(=O)N4CCC(N[C@@H]5CCOC[C@@H]5OC)CC4)c3C)cc2c1 [Example 40] | 84 |
| COc1cc(Nc2ncnc(C(=O)N3CCC(N[C@@H]4CCOC[C@@H]4OC)CC3)c2C)cc2ccccc12 [Example 41] | 196 |
| CO[C@H]1COCC[C@H]1NC1CCN(C(=O)c2ncnc(Nc3ccc4cc(Br)ccc4c3)c2C)CC1 [Example 42] | 20 |
| CO[C@@H]1COCC[C@@H]1NC1CCN(C(=O)c2ncnc(Nc3ccc4cc(Br)ccc4c3)c2C)CC1 [Example 43] | 17 |

Next, values leading:

| Ki [nM] | Structure (SMILES) |
| --- | --- |
| 0.3 | CO[C@@H]1COCC[C@@H]1NC1CCN(C(=O)c2nc(C3CC3)nc(Nc3cccc(C(F)(F)F)c3)c2C)CC1 [Example 33t] |
| 1 | Cc1c(Nc2cccc(C(F)(F)F)c2)nc(C2CC2)nc1C(=O)N1CCC(N[C@H]2CCOC[C@H]2F)CC1 [Example 33u] |
| 0.4 | CO[C@H]1COCC[C@H]1NC1CCN(C(=O)c2nc(C3CC3)nc(Nc3cccc(C(F)(F)F)c3)c2C)CC1 [Example 33v] |
| 3 | COc1nc(Nc2cccc(C(F)(F)F)c2)c(C)c(C(=O)N2CCC(NC3CCOCC3)CC2)n1 [Example 33w] |

— patent US8946218B2, “CCR2 receptor antagonists, method for producing the same, and use thereof as medicaments” (Boehringer Ingelheim International GmbH, priority 2010, dated 2015)
